Data: patent publication US6518412B1, “Gene therapy approaches to supply apolipoprotein A-I agonists and their use to treat dyslipidemic disorders” (priority 1997, dated 2003)
Where a SMILES comes first, the peptide text is derived from it. Where no end group is shown, it is not given here.

Key:
[1] = system: EPC/Chol (20:1) small unilamellar vesicles; experiment: Lipid binding by fluorescence spectroscopy
Protocol: The lipid binding properties of the peptides described in Section 6, supra, were tested by fluorescence measurements with labeled peptides, in the present case Tryptophane (Trp or W) or Naphtylalanine (Nal). The fluorescence spectra were recorded on a Fluoromax from Spex (Jobin-Yvon) equipped with a Xenon lamp of 150W, two monochromators (excitation and emission), a photomultiplier R-928 for detection sensitive in the red up to 850 nm and a thermoelectric magnetic stirred cell holder. Quartz Suprasil cuvettes were used for measurements in the micromolar concentration range. A device of variable slits (from 0.4 to 5 nm) allows modulation of the incident and emitted intensities according to the concentration of peptide used. The reported values are in general the average of between 2 to 4 spectra. The peptide concentration is determined by absorption spectrometry on a Philips PU 8800 using the absorption band of the Trp (∈280 nm=5,550 M^−1 cm^−1 in Tris buffer) or the Nal (∈224 nm=92,770 M^−1 cm^−1 in methanol).
Fluorescence spectra of the peptides were recorded between 290 nm and 450 nm in Tris-HCl buffer (20 mM, pH=7.5), in the presence and absence of lipidic vesicles. The small unilamellar vesicles were formed after rehydration in buffer of the lyophilized phospholipids, dispersion and tip sonification under a N2 stream. The lipids used were either Egg PC/Chol. (20:1) or POPC/Chol. (20:1). The spectra were recorded at a peptide concentration of 2 μM and at a temperature of 37° C. The fluorescence reference standard in the case of Trp was N-acetyltryptophanylamide (NATA).
Lipid binding studies were done through progressive lipidic vesicle addition to the peptide in solution at 2 μM (slits:5 nm in excitation and 1.5 nm in emission). Dilution effects were taken into account for the fluorescence intensity determination. The lipid concentrations were varied from 10 to 600 μM and the molar ratio of lipid to peptide (Ri) was varied from 5 to 300. The wavelength of excitation was set at 280 nm for both Trp and Nal.
The data were directly recorded and treated by an IBM-PC linked to the spectrofluorimeter through the DM3000F software from Spex. The spectra were corrected by substraction of the solvent contribution and by application of a coefficient given by the constructor taking into account the variation of the photomultiplier response versus the wavelength.
The fluorescence spectra of the peptides were characterized by the wavelength at their maximum of fluorescence emission and by their quantum yield compared to NATA in the case of peptides labeled with a tryptophane. The process of binding to lipids was analyzed by calculating the shift of the wavelength at the maximum of fluorescence emission, (λmax), and the variation of the relative fluorescence intensity of emission versus the lipid concentration. The relative fluorescence intensity is defined as the following ratio: (I-I0)λmax/I0λmax. I and I0 are both measured at the (λmax) corresponding to the initial free state of the peptide, i.e., without lipids. I is the intensity at a defined lipid to peptide ratio and I0 is the same parameter measured in absence of lipids. The absence of these variations is relevant of the absence of interactions of the peptides with the lipids.

[2] = molecular target: T1, LCAT (purified from human plasma) (Homo sapiens, UniProt P04180); experiment: LCAT activation assay; type: biochemical; conditions: for LCAT activation as compared with native ApoA-I: native ApoA-I = 100% activation
T1 construct: from tissue; host or cells: human plasma
T1 sequence (P04180 25-440): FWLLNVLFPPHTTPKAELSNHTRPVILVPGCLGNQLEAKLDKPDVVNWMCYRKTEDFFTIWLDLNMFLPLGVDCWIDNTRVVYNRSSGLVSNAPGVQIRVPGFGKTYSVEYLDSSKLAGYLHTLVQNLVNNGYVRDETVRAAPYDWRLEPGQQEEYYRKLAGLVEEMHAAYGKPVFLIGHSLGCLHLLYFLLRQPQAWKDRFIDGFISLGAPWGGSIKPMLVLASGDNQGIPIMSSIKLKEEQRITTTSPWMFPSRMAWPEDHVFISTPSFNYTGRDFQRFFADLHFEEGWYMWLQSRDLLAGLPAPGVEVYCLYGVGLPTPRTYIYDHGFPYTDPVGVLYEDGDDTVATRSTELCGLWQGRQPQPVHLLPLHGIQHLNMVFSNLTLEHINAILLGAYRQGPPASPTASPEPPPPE
Protocol: Examples of peptides which may be encoded by the nucleotides of the present invention are listed in Table VIII which also includes peptides which are chemically synthesized. […] All of the peptides listed were analyzed in vitro for their ability to activate LCAT. In the LCAT assay, substrate vesicles (small unilamellar vesicles or “SUVs”) composed of egg phophatidylcholine or 1-Palmitoyl-2-oleyl-phosphatidylcholine (POPC) and radiolabelled cholesterol are preincubated with equivalent masses either of peptide or ApoA-I (isolated from human plasma). The reaction is initiated by addition of LCAT (purified from human plasma). Native ApoA-I, which was used as positive control, represents 100% activation activity. “Specific activity” (i.e., units of activity (LCAT activation)/unit of mass) of the peptides can be calculated as the concentration of peptide that achieves maximum LCAT activation. For example, a series of concentrations of the peptide (e.g., a limiting dilution) can be assayed to determine the “specific activity” for the peptide—the concentration which achieves maximal LCAT activation (i.e., percentage conversion of cholesterol to cholesterol ester) at a specific timepoint in the assay (e.g., 1 hr.). When plotting percentage conversion of cholesterol at, e.g., 1 hr., against the concentration of peptide used, the “specific activity” can be identified as the concentration of peptide that achieves a plateau on the plottal curve.
The vesicles used in the LCAT assay are SUVs composed of egg phosphatidylcholine (EPC) or 1-palmitoyl-2-oleyl-phosphatidylcholine (POPC) and cholesterol with a molar ratio of 20:1. To prepare a vesicle stock solution sufficient for 40 assays, 7.7 mg EPC (or 7.6 mg POPC; 10 μmol), 78 μg (0.2 μmol) 4-^14C-cholesterol, 116 μg cholesterol (0.3 μmol) are dissolved in 5 ml xylene and lyophilized. Thereafter 4 ml of assay buffer is added to the dry powder and sonicated under nitrogen atmosphere at 4° C. Sonication conditions: Branson 250 sonicator, 10 mm tip, 6.5 minutes; Assay buffer: 10 mM Tris, 0.14M NaCl, 1 mM EDTA, pH 7.4). […]

[3] = HDL cholesterol in rabbits after injection of phospholipid/peptide complex; type: in vivo, Male New Zealand White rabbits; conditions: for Increase in HDL Cholesterol (%): 8 mg/kg i.v. as peptide/DPPC complexes
Protocol: Small discoidal particles consisting of phospholipid (DPPC) and peptide 146 (SEQ ID NO:146) were prepared following the cholate dialysis method. The phospholipid was dissolved in chloroform and dried under a stream of nitrogen. The peptide was dissolved in buffer (saline) at a concentration of 1-2 mg/ml. The lipid film was redissolved in buffer containing cholate (43° C.) and the peptide solution was added at a 3-1 phospholipid/peptide ratio. The mixture was incubated overnight at 43° C. and then dialyzed at 43° C. (24 hr.), room temperature (24 hr.) and 4° C. (24 hr.), with three changes of buffer (large volumes) at temperature point. The complexes were filter sterilized (0.22μ) for injection and storage at 4° C. The particles were separated on a gel filtration column (Superose 6 HR). The position of the peak containing the particles was identified by measuring the phospholipid concentration in each fraction. From the elution volume, the Stokes radius can was determined. The concentration of peptide in the complex was determined by determining the phenylalanine content (by HPLC) following a 16 hr. acid hydrolysis. Male New Zealand White rabbits (2.5-3 kg) were injected intravenously with a dose of phospholipid/peptide complex (8 mg/kg bodyweight peptide 146 (SEQ ID NO:146) or 10 mg/kg bodyweight ApoA-I, expressed as peptide or protein content) in a single bolus injection not exceeding 10-15 ml. The animals were slightly sedated before the manipulations. Blood samples (collected on EDTA) were taken before and 5, 15, 30, 60, 240 and 1440 minutes after injection. The hematocrit (Hct) was determined for each sample. Samples were aliquoted and stored at −20° C. before analysis. Plasma Lipids. The total plasma cholesterol, plasma triglycerides and plasma phospholipids were determined enzymatically using commercially available assays according to the manufacturer's protocols (Boehringer Mannheim, Mannheim, Germany and Biomérieux, 69280, Marcy-l'étoile, France). Lipoprotein Profiles. The plasma lipoprotein profiles of the fractions obtained after the separation of the plasma into its lipoprotein fractions were determined by spinning in a sucrose density gradient. The fractions were collected and in each individual fraction the phospholipid and cholesterol content was measured enzymatically.

Compound: CC(=O)N[C@@H](Cc1c[nH]c2ccccc12)C(N)=O [NATA, N-acetyltryptophanylamide, reference compound]
- λmax ([1]; Ri 0, in buffer, 2 μM): 350 nm

Compound: CC(=O)N1CCC[C@H]1C(=O)N[C@H](C(=O)N[C@@H](CC(C)C)C(=O)N[C@@H](CC(=O)O)C(=O)N[C@@H](CCC(=O)O)C(=O)N[C@@H](Cc1ccccc1)C(=O)N[C@@H](CCCN=C(N)N)C(=O)N[C@@H](CCC(=O)O)C(=O)N[C@@H](CCCCN)C(=O)N[C@@H](CC(C)C)C(=O)N[C@@H](CC(N)=O)C(=O)N[C@@H](CCC(=O)O)C(=O)N[C@@H](CCC(=O)O)C(=O)N[C@@H](CC(C)C)C(=O)N[C@@H](CCC(=O)O)C(=O)N[C@@H](C)C(=O)N[C@@H](CC(C)C)C(=O)N[C@@H](CCCCN)C(=O)N[C@@H](CCC(N)=O)C(=O)N[C@@H](CCCCN)C(=O)N[C@@H](CC(C)C)C(=O)N[C@@H](CCCCN)C(N)=O)C(C)C [consensus 22-mer] (Ac-PVLDEFREKLNEELEALKQKLK-NH2)
- LCAT activation as compared with native ApoA-I [2]: 10%

Compound: PVLDLFRELWEELKQKLK* (not fully specified (N-terminus, C-terminus); printed as PVLDLFRELWEELKQKLK*; also: terminal modification marked *, not defined here) [peptide 199]
- lipid to peptide molar ratio at which burying of the tryptophane residue is maximal ([1]; EPC/Chol (20:1) SUVs): about 100
- λmax ([1]; Ri 0, in buffer, 2 μM): 348 nm
- λmax ([1]; Ri 5): 344 nm
- λmax ([1]; Ri 10): 339 nm
- λmax ([1]; Ri 30): 328 nm
- λmax ([1]; Ri 100): 326 nm
- λmax ([1]; Ri 200): 325 nm
- lipid binding ([1]; small unilamellar vesicles): binds very effectively

Compound: PVLELFENLLERLLDALQKKLK [peptide 146]
- Increase in HDL Cholesterol (%) ([3]; 5 min): 31.3%
- Increase in HDL Cholesterol (%) ([3]; 15 min): 60.4%
- Increase in HDL Cholesterol (%) ([3]; 60 min): 42.9%
- Increase in HDL Cholesterol (%) ([3]; 240 min, 8 mg/kg): 90%
- Increase in HDL Cholesterol (%) ([3]; 240 min, listed as Peptide 146, 8 mg/kg): 90.2%
- Increase in HDL Cholesterol (%) ([3]; 1440 min): 71.2%
- duration of the increase in cholesterol of the HDL cholesterol fractions ([3]; 8 mg/kg, apparent at 5 min following injection): approximately 24 hr

Compound: PVLELFERLLEDLQKKLK [peptide 229]
- ACTIVITY (%) LCAT ([2]; LCAT activation as compared with native human ApoA-I): 0%

Compound: peptide 18AM4: peptide ApoA-I mimic described in the literature (Corinjn et al., 1993) (EWLEAFYKKVLEKLKELF)
- LCAT activation as compared with native ApoA-I [2]: less than 4%
